Measured values reported in article PMC10893631, “Receptor-based pharmacophore modeling, molecular docking, synthesis and biological evaluation of novel VEGFR-2, FGFR-1, and BRAF multi-kinase inhibitors” (BMC Chemistry, 2024).

Columns and labels:
Assay in all cases: NCI SRB growth inhibition (single dose 10 µM / five-dose)
Assay type in all cases: cell-based, human
RPMI-8226 = conditions: Homo sapiens; for inhibition at 10 µM: RPMI-8226 (Leukemia), read-out: GI%
Outline: (§1)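 Two-stage NCI-60 screen: single-dose test first, then five-dose testing. Growth is scored by sulforhodamine B staining of TCA-fixed cells relative to a time-zero plate, and TGI is taken where Ti = Tz.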

OVCAR-4 = conditions: Homo sapiens; for inhibition at 10 µM: OVCAR-4 (Ovarian cancer), read-out: GI%
Outline: as §1

SF-295 = conditions: Homo sapiens; for inhibition at 10 µM: SF-295 (CNS cancer), read-out: GI%
Outline: as §1

OVCAR-3 = conditions: Homo sapiens; for inhibition at 10 µM: OVCAR-3 (Ovarian cancer), read-out: GI%
Outline: as §1

NCI-H226 = conditions: Homo sapiens; for inhibition at 10 µM: NCI-H226 (Non-small cell lung cancer), read-out: GI%
Outline: as §1

UO-31 = conditions: Homo sapiens; for inhibition at 10 µM: UO-31 (Renal cancer), read-out: GI%
Outline: as §1

SNB-75 = conditions: Homo sapiens; for inhibition at 10 µM: SNB-75 (CNS cancer), read-out: GI%
Outline: as §1

SK-OV-3 = conditions: Homo sapiens; for inhibition at 10 µM: SK-OV-3 (Ovarian cancer), read-out: GI%
Outline: as §1

SK-MEL-5 = conditions: Homo sapiens; for inhibition at 10 µM: SK-MEL-5 (Melanoma), read-out: GI%
Outline: as §1

K-562 = conditions: Homo sapiens, K562; for inhibition at 10 µM: K-562 (Leukemia), read-out: GI%
Outline: as §1

IGROV1 = conditions: Homo sapiens, IGROV-1; for inhibition at 10 µM: IGROV1 (Ovarian cancer), read-out: GI%
Outline: as §1

DU-145 = conditions: Homo sapiens; for inhibition at 10 µM: DU-145 (Prostate cancer), read-out: GI%
Outline: as §1

PC-3 = conditions: Homo sapiens; PC-3 (Prostate cancer), 10 µM; read-out: GI%
Outline: as §1

MDA-MB-231/ATCC = conditions: Homo sapiens; for inhibition at 10 µM: MDA-MB-231/ATCC (Breast cancer), read-out: GI%
Outline: as §1

SK-MEL-2 = conditions: Homo sapiens; for inhibition at 10 µM: SK-MEL-2 (Melanoma), read-out: GI%
Outline: as §1

CCRF-CEM = conditions: Homo sapiens; for inhibition at 10 µM: CCRF-CEM (Leukemia), read-out: GI%
Outline: as §1

BT-549 = conditions: Homo sapiens; for inhibition at 10 µM: BT-549 (Breast cancer), read-out: GI%
Outline: as §1

KM12 = conditions: Homo sapiens; for inhibition at 10 µM: KM12 (Colon cancer), read-out: GI%
Outline: as §1

M14 = conditions: Homo sapiens; for inhibition at 10 µM: M14 (Melanoma), read-out: GI%
Outline: as §1

HT29 = conditions: Homo sapiens, HT-29; for inhibition at 10 µM: HT29 (Colon cancer), read-out: GI%
Outline: as §1

NCI-H522 = conditions: Homo sapiens; for inhibition at 10 µM: NCI-H522 (Non-small cell lung cancer), read-out: GI%
Outline: as §1

SF-268 = conditions: Homo sapiens; for inhibition at 10 µM: SF-268 (CNS cancer), read-out: GI%
Outline: as §1

RXF 393 = conditions: Homo sapiens; for inhibition at 10 µM: RXF 393 (Renal cancer), read-out: GI%
Outline: as §1

SK-MEL-28 = conditions: Homo sapiens; for inhibition at 10 µM: SK-MEL-28 (Melanoma), read-out: GI%
Outline: as §1

U251 = conditions: Homo sapiens, U-251; for inhibition at 10 µM: U251 (CNS cancer), read-out: GI%
Outline: as §1

SN12C = conditions: Homo sapiens
Outline: as §1

In the case of `COc1ccc(-c2nc3cc(C(=O)NN=Cc4cccc(OC)c4O)ccc3[nH]2)cc1` [8k, N'-(2-Hydroxy-3-methoxybenzylidene)-2-(4-methoxyphenyl)-1H-benzo[d]imidazole-5-carbohydrazide], the inhibition at 10 µM (RPMI-8226) is reported as > 100%, the GI50 (RPMI-8226; RPMI-8226, Leukemia, five-dose) is reported as 2800 nM and the inhibition at 10 µM (OVCAR-4) is reported as 86%. For the same compound, the GI50 (OVCAR-4; OVCAR-4, Ovarian cancer, five-dose) was 3260 nM, the inhibition at 10 µM (SF-295) was 96.4% and the GI50 (SF-295; SF-295, CNS cancer, five-dose) was 2480 nM. The inhibition at 10 µM (OVCAR-3) was > 100%, the GI50 (OVCAR-3; OVCAR-3, Ovarian cancer, five-dose) was 1250 nM and the inhibition at 10 µM (NCI-H226) was 82.2%. It also gave a GI50 (NCI-H226; NCI-H226, Non-small cell lung cancer, five-dose) of 3140 nM, an inhibition at 10 µM (UO-31) of 83.2% and a GI50 (UO-31; UO-31, Renal cancer, five-dose) of 3340 nM. For the same compound, the inhibition at 10 µM (SNB-75) was 91%, the GI50 (SNB-75; SNB-75, CNS cancer, five-dose) was 3050 nM and the inhibition at 10 µM (SK-OV-3) was > 100%. For the same compound, the GI50 (SK-OV-3; SK-OV-3, Ovarian cancer, five-dose) was 4310 nM, the inhibition at 10 µM (SK-MEL-5) was > 100% and the GI50 (SK-MEL-5; SK-MEL-5, Melanoma, five-dose) was 2860 nM. For the same compound, the inhibition at 10 µM (K-562) was > 100%, the GI50 (K-562; K-562, Leukemia, five-dose) was 3740 nM and the inhibition at 10 µM (IGROV1) was 84.8%. The GI50 (IGROV1; IGROV1, Ovarian cancer, five-dose) was 3520 nM, the inhibition at 10 µM (DU-145) was 85.1% and the GI50 (DU-145; DU-145, Prostate cancer, five-dose) was 5060 nM. For the same compound, the inhibition at 10 µM (PC-3) was 87.9%, the inhibition at 10 µM (MDA-MB-231/ATCC) was 97.7% and the GI50 (MDA-MB-231/ATCC; MDA-MB-231/ATCC, Breast cancer, five-dose) was 2800 nM. The inhibition at 10 µM (SK-MEL-2) was 39.1%, the GI50 (SK-MEL-2; SK-MEL-2, Melanoma, five-dose) was 6300 nM and the inhibition at 10 µM (CCRF-CEM) was > 100%. The GI50 (CCRF-CEM; CCRF-CEM, Leukemia, five-dose) was 1050 nM, the inhibition at 10 µM (BT-549) was > 100% and the GI50 (BT-549; BT-549, Breast cancer, five-dose) was 2850 nM. For the same compound, the inhibition at 10 µM (KM12) was > 100%, the GI50 (KM12; KM12, Colon cancer, five-dose) was 2450 nM and the inhibition at 10 µM (M14) was 91%. The GI50 (M14; M14, Melanoma, five-dose) was 2810 nM, the inhibition at 10 µM (HT29) was > 100% and the GI50 (HT29; HT29, Colon cancer, five-dose) was 3670 nM. The inhibition at 10 µM (NCI-H522) was > 100%, the GI50 (NCI-H522; NCI-H522, Non-small cell lung cancer, five-dose) was 2980 nM and the inhibition at 10 µM (SF-268) was > 100%. For the same compound, the GI50 (SF-268; SF-268, CNS cancer, five-dose) was 2160 nM, the inhibition at 10 µM (RXF 393) was > 100% and the GI50 (RXF 393; RXF 393, Renal cancer, five-dose) was 2580 nM. The inhibition at 10 µM (SK-MEL-28) was > 100%, the GI50 (SK-MEL-28; SK-MEL-28, Melanoma, five-dose) was 3320 nM and the inhibition at 10 µM (U251) was 97.3%. The GI50 (U251; U251, CNS cancer, five-dose) was 2170 nM and the GI50 (SN12C; SN12C, Renal cancer, five-dose) was 3810 nM.

`COc1ccc(-c2nc3cc(C(=O)NN=Cc4ccc(OC)c(O)c4)ccc3[nH]2)cc1` [8l, N'-(3-Hydroxy-4-methoxybenzylidene)-2-(4-methoxyphenyl)-1H-benzo[d]imidazole-5-carbohydrazide] was tested, and the inhibition at 10 µM (RPMI-8226) was 32.4%, the inhibition at 10 µM (OVCAR-4) was 9.88% and the inhibition at 10 µM (SF-295) was 51%. The inhibition at 10 µM (OVCAR-3) was 37.6%, the inhibition at 10 µM (NCI-H226) was 24.5% and the inhibition at 10 µM (UO-31) was 9.13%. For the same compound, the inhibition at 10 µM (SNB-75) was 25.8%, the inhibition at 10 µM (SK-OV-3) was < 5% and the inhibition at 10 µM (SK-MEL-5) was 55.3%. It also gave an inhibition at 10 µM (K-562) of 48.5%, an inhibition at 10 µM (IGROV1) of 20.3% and an inhibition at 10 µM (DU-145) of 27.9%. It also gave an inhibition at 10 µM (PC-3) of 51.2%, an inhibition at 10 µM (MDA-MB-231/ATCC) of 26.4% and an inhibition at 10 µM (SK-MEL-2) of 25.8%. The inhibition at 10 µM (CCRF-CEM) was 89.4%, the inhibition at 10 µM (BT-549) was 10.4% and the inhibition at 10 µM (KM12) was 34.5%. The inhibition at 10 µM (M14) was 63.5%, the inhibition at 10 µM (HT29) was > 100% and the inhibition at 10 µM (NCI-H522) was 38.2%. For the same compound, the inhibition at 10 µM (SF-268) was 40.4%, the inhibition at 10 µM (RXF 393) was 37.2% and the inhibition at 10 µM (SK-MEL-28) was 52.5%. It also gave an inhibition at 10 µM (U251) of 44.8% and an inhibition at 10 µM (SN12C; SN12C (Renal cancer), 10 µM, read-out: GI%) of 27%.
